Assay results: patent US9429566B2, “Assay for inhibitors of CIP/KIP protein degradation” (UNIVERSITE DE MONTREAL, priority 2011, dated 2016)
Peptide text beside a SMILES is read from it. * marks the point of attachment. Cbz = O=C(OCc1ccccc1)*

Key:
p21-Rluc fusion protein = test: High throughput p21 degradation assay (p21-Rluc reporter, cycloheximide); format: cell-based, human; conditions: MG132 25 μM, set at 100% stabilization
endogenous p21 protein = test: p21 ELISA of endogenous p21 protein; format: cell-based; conditions: dose-response, normalized to DMSO, FIG. 10B
From the text: Luciferase values are normalized to the control DMSO (set to 1). […] ELISA values are normalized to the control DMSO.
The p21-Rluc degradation assay was next transposed to a HTS-compatible format in 384-well plates and used to screen the Institut de Recherche en Immunologie et Cancerologie's (IRIC's) collection of 112,900 compounds (FIG. 6) derived from the Chembridge DIVERset™ screening library, the Maybridge Hitfinder™ screening library, the Specs screening library, the Microsource […]™ collection, the Biomol/Enzo Life Sciences Screen-Well™ library, the Prestwick Chemical Library™ library and the Sigma LOPAC^1280™. The potent proteasome inhibitor MG-132 was used as positive control. The mean increase of p21-Rluc signal by all positive controls across the screen was 3.062 (FIG. 6). This value was set at 100% stabilization and used as comparison reference for test compounds. From the primary screen, 686 compounds that increase the p21-Rluc luminescence signal by at least 1.7-fold and 4 SDs above baseline (DMSO control) were identified (FIG. 5). These compounds were re-tested in a reconfirmation experiment using the same assay conditions. […] Confirmed hits were then tested in a secondary assay using Rluc alone to eliminate compounds that increase luciferase enzymatic activity or boost the luminescence signal. […]

## CC(C)C[C@@H](C=O)NC(=O)[C@H](CC(C)C)NC(=O)[C@H](CC(C)C)NC(=O)OCc1ccccc1 [MG-132] (Cbz-Leu-Leu-Leu-aldehyde)
p21-Rluc fusion protein
  mean increase of p21-Rluc signal by all positive controls across the screen: 3.062
Endogenous p21 protein
  intracellular expression of endogenous p21 protein (ELISA): increase in the intracellular expression of the endogenous protein
